# Results published in ChEMBL document CHEMBL1155065, “A serine protease inhibitor from hemolymph of green mussel, Perna viridis” (Bioorg Med Chem Lett, 2008).
# Calls of active or inactive are those of the source. The rule behind the calls is not given here.
# What was measured:
# [1] = Inhibition of trypsin
# [2] = Inhibition of trypsin at 32 degC
# [3] = Inhibition of trypsin at 37 degC
# [4] = Inhibition of trypsin at 42 degC
# [5] = Inhibition of chymotrypsin
# [6] = Inhibition of trypsin by classical double reciprocal plot
# [7] = Inhibition of trypsin by Dixon plot
compound,measurement,setting,value
O=C(O)c1ccc(C(=O)O)c2c1c(C(=O)O)c1cccnc1[n+]2C(=O)O,IC50,[1],102 µM
same,Ki,[2],102 µM
same,Ki,[3],97.1 µM
same,Ki,[4],94 µM
same,Activity,[5],inactive
same,Ki,[6],105 µM
same,Ki,[7],97.1 µM
